Test results published in US20250236596A1, “HYDROXYLAMINE-BASED EGFR INHIBITORS FOR TREATMENT OF CANCER WITH BRAIN METASTASES” (University of Georgia Research Foundation, Inc., priority 2022, published 2025).
Entries after “also recorded” stand apart in the source; their conditions may differ.

Key:
[1] = Metabolic stability in liver microsomes; type: in vitro ADME; details: human and rat / multiple species; result in words
Method: Assessment of the compounds metabolic stability in incubations containing liver microsomes and hepatocytes of human and rat using the compound depletion approach was performed by Pharmaron Inc. Compound 15 underwent additional stability evaluation in monkey and dog hepatocytes. Microsome stability was assessed in duplicate (n=2) in the presence and absence of NADPH with liver microsomes (0.5 mg/mL) from human (BD Gentest) and SD rat (BD Gentest). Compounds were incubated in liver microsomes at 1 μM and samples (30 μL) were taken at 0.5, 15, 30, 45 and 60 min time points for analysis by LC-MS/MS. Hepatocyte stability was assessed in duplicate (n=2) at a working cell density of 0.5×10^6 cells/mL with hepatocytes from human (BioIVT), SD rat (BioIVT), cynomolgous monkey (RILD) or beagle dog (BioIVT). Compounds were incubated in hepatocytes at 1 μM and samples (25 μL) were taken at 0.5, 15, 30, 60, 90 and 120 min time points for analysis by LC-MS/MS. The in vitro half-life and intrinsic clearances were determined as previously described.^19
In vitro half-life (in vitro t1/2) was determined from the slope value in: in vitro t1/2=−(0.693/k).
Where, k, was determined by linear regression of the natural logarithm of the remaining percentage of the parent drug vs incubation time curve.

[2] = system: Chinese hamster ovary (CHO-K1) cells; test: In vitro micronucleus test; type: cell-based; details: for concentration to which negative micronucleus result is valid: cytotoxicity above
Method: Compound 15 was assessed for genotoxicity by Eurofins Panlabs. using the in vitro micronucleus test in Chinese hamster ovary (CHO-K1) cells as previously described.^22 Compound 15 was incubated in a 96-well plate format at varying concentrations (8, 16, 31, 62, 125, 250, 500 and 1000 μM) for 4 h at 37° C. with metabolic activation by rat liver S9 and 24 h at 37° C. without metabolic activation by rat liver S9. High content analysis and fluorescence imaging were used to detect micronuclei and compared against positive controls (cyclophosphamide (ran at 7.2 μM) and mitomycin C (ran at 0.3 μM)). Significances of the positive counts between the treatment and control were determined by one-tailed t-test with two sample equal variance.

[3] = Solubility in PBS at pH 7.4; type: physicochemical; details: compared to both 1 and 6; result in words
Method: Solubility was determined by Pharmaron Inc. and each compound was assessed in duplicate (n=2) by adding 15 μL of compound stock solution (10 mM in DMSO) into a 96-well plate along with 485 μL of buffer followed by shaking at 25° C., 1,100 rpm for 2 h. Wells were filtered and samples (5 μL) were taken followed by dilution with an equal volume of DMSO (5 μL) and 490 μL of aqueous solution. Samples were analyzed by LC-MS/MS.

## COc1cc2ncnc(Nc3cccc(Cl)c3F)c2cc1OCCON1CCN(C)CC1 [Compound 15, N-(3-chloro-2-fluorophenyl)-7-methoxy-6-(2-((4-methylpiperazin-1-yl)oxy)ethoxy)quinazolin-4-amine]
[1]
  stability in liver microsomes: good stability
[2]; +rat liver S9
  concentration to which negative micronucleus result is valid: ≤ 31 µM
[2]; CHO-K1, with and without rat liver S9
  genotoxicity in in vitro micronucleus test: negative; also recorded: neither mutagenic nor genotoxic potential
[2]; −rat liver S9
  concentration to which negative micronucleus result is valid: ≤ 8 µM
[3]
  aqueous solubility: markedly improved aqueous solubility
